Results taken from patent US20180179499A1, “BIOBASED PRODUCTION OF FUNCTIONALIZED ALPHA-SUBSTITUTED ACRYLATES AND C4-DICARBOXYLATES” (BIOAMBER INC., priority 2015, published 2018).

Columns and labels:
C. glutamicum = assay: Host tolerance: growth rate with compound versus unchallenged cells; type: cell-based; settings: pH 8, 30° C.
Procedure: (§1) Potential hosts for the described pathways to alpha substituted C4 dicarboxylic acids were identified by determining the tolerance to functionalized alpha substituted dicarboxylic acids as shown in FIG. 2. Specific functionalized alpha substituted C4 dicarboxylic acid compounds were selected to assess tolerance of bacterial and eukaryotic hosts.
(§2) Two eukaryotic strains, I. orientalis and S. cerevisiae, were tested at pH 3 and pH 5. Three bacterial strains were tested using their individual optimal conditions. E. coli and C. glutamicum were tested at pH 8 and 30° C., and B. firmus was tested at pH 9 and 37° C. I. orientalis was grown in defined yeast media consisting of 5 g/L ammonium sulfate, 0.5 g/L magnesium sulfate heptahydrate, 3 g/L potassium phosphate monobasic, 10 g/L dextrose, 1 mL/L of 10% glycerol stock, 1 mL/L of 1000× trace. The 1000× trace stock solution contains 4 g/L ZnSO4.7H2O, 2 g/L FeSO4.7H2O, 1 g/L MnSO4.H2O, 0.2 g/L CuSO4.5H2O, and 0.8 mL/L H2SO4. S. cerevisiae was grown in buffered defined dextrose media consisting of 50 g/L dextrose, 5 g/L yeast extract, and 40 mL/L 25× DM salts. The 25× DM salt stock solution contains 125 g/L ammonium sulfate, 12.5 g/L magnesium sulfate heptahydrate, 75 g/L potassium phosphate monobasic, and 787.5 g/L water. The bacterial strains were grown in standard LB media consisting of 10 g/L bacto-tryptone, 5 g/L yeast extract, 10 g/L NaCl, and 20 g/L dextrose with addition of 20 g/L glucose.
(§3) Time points were taken over a period of at least 8 hours and up to 24 hours to calculate the rate of growth. Specific growth rate was determined by plotting the natural logarithm of cell number against time. Tolerance was determined by growth rate of cells in the presence of the compound as compared to in the absence of the compound. The scoring method is indicated in Table D. The results of the tolerance studies are shown in Tables E and F. The second column from the left denotes the maximum concentration of the indicated compound in which growth was detected. […] I. orientalis is also a suitable host for most of the compounds.
(§4) Potential hosts for the described pathways to alpha substituted acrylic acid were identified by determining the tolerance to functionalized alpha substituted acrylic acid end-products as shown generally in FIGS. 1 and 3 and more specifically in FIGS. 9 and 10. […]
(§5) Time points were taken over a period of at least 8 hours and up to 24 hours to calculate the rate of growth. Specific growth rate was determined by plotting the natural logarithm of cell number against time. […]

B. firmus = assay: as above; type: cell-based; settings: pH 9, 37° C.
Procedure: as §1, §2, §3, §4, §5

[1] = test system: potential bacterial hosts (E. coli, C. glutamicum, B. firmus, B. cohnii); assay: Tolerance of potential bacterial hosts: highest concentration with growth observed; type: cell-based; settings: Table F, max conc tested 100 g/L
Procedure: as §2
(§6) Time points were taken over a period of at least 8 hours and up to 24 hours to calculate the rate of growth. Specific growth rate was determined by plotting the natural logarithm of cell number against time. Tolerance was determined by growth rate of cells in the presence of the compound as compared to in the absence of the compound.
(§7) Two eukaryotic strains, I. orientalis and S. cerevisiae, were tested for tolerance to the selected compounds at pH 3 and pH 5. The bacterial strains were grown at their individual optimal conditions, E coli and C. glutamicum at pH 8 and 30° C., and B. firmus and B. cohnii at pH 9 and 37° C. I. orientalis was grown in defined yeast media consisting of 5 g/L ammonium sulfate, 0.5 g/L magnesium sulfate heptahydrate, 3 g/L potassium phosphate monobasic, 10 g/L dextrose, 1 mL/L of 10% glycerol stock, 1 mL/L of 1000× trace. The 1000× trace stock solution contains 4 g/L ZnSO4.7H2O, 2 g/L FeSO4.7H2O, 1 g/L MnSO4.H2O, 0.2 g/L CuSO4.5H2O, and 0.8 mL/L H2SO4. S. cerevisiae was grown in buffered defined dextrose media consisting of 50 g/L dextrose, 5 g/L yeast extract, and 40 mL/L 25×DM salts. The 25×DM salt stock solution contains 125 g/L ammonium sulfate, 12.5 g/L magnesium sulfate heptahydrate, 75 g/L potassium phosphate monobasic, and 787.5 g/L water. The bacterial strains were grown in standard LB media consisting of 10 g/L bacto-tryptone, 5 g/L yeast extract, 10 g/L NaCl, and 20 g/L dextrose with addition of 20 g/L glucose.
as §6

[2] = test system: potential yeast hosts (I. orientalis, S. cerevisiae); assay: Tolerance of potential yeast hosts: maximum concentration in which growth was detected; type: cell-based; settings: Table E
Procedure: as §2, §6, §7, §6

E. coli = assay: Host tolerance: growth rate with compound versus unchallenged cells; type: cell-based; settings: pH 8, 30° C.
Procedure: Two eukaryotic strains, I. orientalis and S. cerevisiae, were tested at pH 3 and pH 5. Three bacterial strains were tested using their individual optimal conditions. E. coli and C. glutamicum were tested at pH 8 and 30° C., and B. firmus was tested at pH 9 and 37° C. I. orientalis was grown in defined yeast media consisting of 5 g/L ammonium sulfate, 0.5 g/L magnesium sulfate heptahydrate, 3 g/L potassium phosphate monobasic, 10 g/L dextrose, 1 mL/L of 10% glycerol stock, 1 mL/L of 1000× trace. The 1000× trace stock solution contains 4 g/L ZnSO4.7H2O, 2 g/L FeSO4.7H2O, 1 g/L MnSO4.H2O, 0.2 g/L CuSO4.5H2O, and 0.8 mL/L H2SO4. […]
as §6, with “compound. […]” for “compound.”
as §6

[3] = Dehydratase assay: lysate incubated with itatartaric acid, HPLC/NMR; type: biochemical; settings: knockout E coli strains (acnA or acnB deleted), lysate with ITT overnight at 30° C., HPLC
Procedure: E. coli optimized genes encoding dehydratases are synthesized and cloned into pTrcHisA (Life Technologies (formerly Invitrogen)). Dehydratase candidates are found in Table I. Plasmids containing the optimized synthase genes are transformed into BL21 E. coli cells. Empty plasmid pTrcHisA are also transformed as a negative control. […]. Flasks are incubated at 30° C. at 250 rpm shaking for 2 hours, then protein production is induced with 0.2 mM IPTG and incubated for 4 more hours at 30° C. while shaking. Cells are harvested by centrifugation and pellets are stored at −80° C.
Cells are lysed using mechanical disruption using a BeadBeater (BopSpec products, Bartlesville, Okla.) using the manufacturer's instructions. […] Protein concentrations of the resulting clarified lysates are measured via BioRad total Protein assay using the manufacturer's instructions. […]
The reaction mixture contains 100 mM TAPS buffer pH 6.8, 100 mM KCl, 100 mM substrate alpha (hydroxymethyl) maleic acid. […] The reactions in these microplates are monitored at 235 nm. Readings are taken every 9 seconds for 10 minutes and the data is used to calculate activities of each enzyme. Background absorbance is measured by the same reaction with no substrate present are subtracted. […]
The lysates were incubated with or without a known amount of synthesized ITT overnight at 30° C., and then the samples were analyzed by HPLC. […]

[4] = Synthase activity assay (DTNB, lysates of BL21 E. coli expressing the candidate); type: biochemical; settings: Table H, wild type and mutant synthases; 0.5 mM hydroxypyruvate
Procedure: E coli optimized genes encoding synthases were synthesized and cloned into pTrcHisA (Life Technologies (formerly Invitrogen)). Synthase genes tested are found in Table G. Plasmids containing the optimized synthase genes were transformed into BL21 E. coli cells. Empty plasmid pTrcHisA was also transformed as a negative control. […]. Flasks were incubated at 30° C. at 250 rpm shaking for 2 hours, then protein production was induced with 0.2 mM IPTG and incubated for 4 more hours at 30° C. while shaking. Cells were harvested by centrifugation and pellets were stored at −80° C.
Activity of synthase candidates was assessed with an in vitro assay using DTNB (5,5′-Dithiobis(2-nitrobenzoic acid)) as an indicator. The enzyme activity was tested using either no substrate or hydroxypyruvate as the substrate. The DTNB interacts with the free thio created by the condensation of acetyl-CoA and the substrate present. Unless otherwise specified, all chemicals were purchased from Sigma-Aldrich Chemical Company, St. Louis, Mo.
Cells were lysed using mechanical disruption using a BeadBeater (BopSpec products, Bartlesville, Okla.) following the manufacturer's instructions. The cell lysate was partially clarified by centrifugation (14,000G for 5 minutes). Protein concentrations of the resulting clarified lysates were measured via BioRad total Protein assay using the manufacturer's instructions. Lysates were normalized by protein concentration in 100 mM Tris buffer. The normalized lysates were diluted 1 to 7 in 100 mM Tris buffer. 20 μl of lysate was added to each well for the 96-well plate assay. Each condition was performed in triplicate.
The reaction mixture contains 100 mM Tris pH 7.4, 5 mM MgSO4, 0.2 mM acetyl-CoA, 0.5 mM DTNB, 0.5 mM substrate, hydroxypyruvate. To start the reaction, 180 μl of reaction mix was added to each well already containing 20 μl lysate. The reactions in these microplates were monitored at 412 nm. Readings were taken every 9 seconds for 10 minutes and the data was used to calculate activities of each enzyme. Synthase activity was observed when hydroxypyruvate was the substrate as compared to cells containing empty vector (FIG. 20(a), Table G). Background absorbance as measured by the same reaction with no substrate present were subtracted. Error bars in the graphs reflect the standard deviations calculated for the averages for each condition performed in triplicate. Specific mutations change the activity of the enzymes tested (FIG. 20(b), Table H). Further enzyme engineering will improve specificity and activity of desired enzymatic reaction.

Molecule | Tolerance score (percent growth rate as compared to unchallenged cells) (C. glutamicum) | Tolerance score (percent growth rate as compared to unchallenged cells) (B. firmus) | Highest conc with growth observed [1] [g/L] | Max conc (maximum concentration in which growth was detected) [2] [g/L] | Tolerance score (percent growth rate as compared to unchallenged cells) (E. coli) | Formation of ITT dehydration product [3] | Activity with hydroxy pyruvate [4]
O=C(O)CC1(C(=O)O)CCC(=O)O1 (stereo not drawn) [Homocitrate lactone] | − (10-0%) | − (10-0%) | 100 | 100 | +++ (100-90%) | – | –
O=C(O)CC[C@@](O)(CC(=O)O)C(=O)O [Homocitrate] | +++ (100-90%) | − (10-0%) | 50 | 100 | − (10-0%) | – | –
acnA: E coli aconitase acnA, endogenous dehydratase, GenBank CAA42834 (protein, UniProt P25516 2-891, looked up) Aconitate hydratase A: SSTLREASKDTLQAKDKTYHYYSLPLAAKSLGDITRLPKSLKVLLENLLRWQDGNSVTEEDIHALAGWLKNAHADREIAYRPARVLMQDFTGVPAVVDLAAMREAVKRLGGDTAKVNPLSPVDLVIDHSVTVDRFGDDEAFEENVRLEMERNHERYVFLKWGKQAFSRFSVVPPGTGICHQVNLEYLGKAVWSELQDGEWIAYPDTLVGTDSHTTMINGLGVLGWGVGGIEAEAAMLGQPVSMLIPDVVGFKLTGKLREGITATDLVLTVTQMLRKHGVVGKFVEFYGDGLDSLPLADRATIANMSPEYGATCGFFPIDAVTLDYMRLSGRSEDQVELVEKYAKAQGMWRNPGDEPIFTSTLELDMNDVEASLAGPKRPQDRVALPDVPKAFAASNELEVNATHKDRQPVDYVMNGHQYQLPDGAVVIAAITSCTNTSNPSVLMAAGLLAKKAVTLGLKRQPWVKASLAPGSKVVSDYLAKAKLTPYLDELGFNLVGYGCTTCIGNSGPLPDPIETAIKKSDLTVGAVLSGNRNFEGRIHPLVKTNWLASPPLVVAYALAGNMNINLASEPIGHDRKGDPVYLKDIWPSAQEIARAVEQVSTEMFRKEYAEVFEGTAEWKGINVTRSDTYGWQEDSTYIRLSPFFDEMQATPAPVEDIHGARILAMLGDSVTTDHISPAGSIKPDSPAGRYLQGRGVERKDFNSYGSRRGNHEVMMRGTFANIRIRNEMVPGVEGGMTRHLPDSDVVSIYDAAMRYKQEQTPLAVIAGKEYGSGSSRDWAAKGPRLLGIRVVIAESFERIHRSNLIGMGILPLEFPQGVTRKTLGLTGEEKIDIGDLQNLQPGATVPVTLTRADGSQEVVPCRCRIDTATELTYYQNDGILHYVIRNMLK | – | – | – | – | – | capable of producing the observed dehydration product | –
SpLys4mt3: Lys4 mutant D123N, V125F, I194L, Schizosaccharomyces pombe (protein, UniProt Q9Y823 1-418, looked up, variant D123N V125F I194L) MSVSEANGTETIKPPMNGNPYGPNPSDFLSRVNNFSIIESTLREGEQFANAFFDTEKKIQIAKALDNFGVDYIELTSPVASEQSRQDCEAICKLGLKCKILTHIRCHMDDARVAVETGVDGVNVFIGTSQYLRKYSHGKDMTYIIDSATEVINFVKSKGIEVRFSSEDSFRSDLVDLLSLYKAVDKIGVNRVGLADTVGCATPRQVYDLIRTLRGVVSCDIECHFHNDTGMAIANAYCALEAGATHIDTSILGIGERNGITPLGALLARMYVTDREYITHKYKLNQLRELENLVADAVEVQIPFNNYITGMCAFTHKAGIHAKAILANPSTYEILKPEDFGMSRYVHVGSRLTGWNAIKSRAEQLNLHLTDAQAKELTVRIKKLADVRTLAMDDVDRVLREYHADLSDADRITKEASA | – | – | – | – | – | – | 0.013
